What all share (experiment): NCI anticancer screen, dose series, 48 h
Assay [1] deals with U251 CNS.
Assay [2] has as its system SW-620 colon.
In assay [3] the test system is K-562 leukemia.
Assay [4] concerns OVCAR-4 ovarian.
Assay [5] deals with SF-539 CNS.
In assay [6] the test system is PC-3 prostate.
The test system of assay [7] is HCT-15 colon.
The test system of assay [8] is UACC-257 melanoma.
Assay [9] has as its system T-47D breast.
The subject of assay [10] is MOLT-4 leukemia.

Drawing on PubChem BioAssay (NCI), this text covers TGI and GI50 for 15 compounds.

Values joined by “and” are separate entries in the source; they are usually repeats but may differ in a detail not shown here. Identical values can stand only once.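 All cell lines were grown in 96-well plates and treated with compound for 48 hours. Abbreviation: GI50, concentration required for 50% inhibition of growth. TGI: total growth inhibition.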 A value given as a limit tells only on which side of the number the result lay.

Regarding `CCc1c(O)nc(Nc2nc3ccccc3[nH]2)[nH]c1=O`, the TGI in assay [1], in [2], in assay [3], in [4], in [5] and in [6] was greater than 100 µM each time. Moreover, the TGI in assay [7] and in assay [8] was greater than 100 µM each time.
As to `COC(=O)Nc1cc(OCCCOC(C)=O)c2[nH]c(C(=O)OC)cc2c1C[C@H](O)CO`, the TGI in assay [9], in assay [1], in assay [2], in assay [10], in [4] and in [5] was greater than 100 µM each time. The TGI in assay [6], in assay [7] and in assay [8] was greater than 100 µM throughout.
Regarding `COc1ccc2oc(=O)c(-c3cc4c(c(C)n3)c(=O)oc3ccc(OC)cc34)cc2c1`, the TGI in assay [9], in assay [1], in [2], in assay [10], in assay [3] and in assay [5] was greater than 100 µM in each case. The TGI in [6], in [7] and in [8] was greater than 100 µM in each case.
Take `NCCCNc1nc2ccccc2c2c(=O)c3cc(Cl)ccc3sc12`: the GI50 was 1.72 µM in assay [5], 1.69 µM in assay [6] and 2 µM in assay [8]. For the same compound, the TGI in assay [5] turned out to be 3.15 µM; in [6] it was 3.23 µM; in [8], 3.74 µM.
For the compound `Cc1nc(C(=Nc2ccc(Br)cc2)Nn2cnnc2)no1`, the TGI in assay [9], in [1], in assay [2], in [10], in assay [3] and in assay [4] was greater than 100 µM in each case. Also, the TGI in assay [6], in assay [7] and in assay [8] was greater than 100 µM in each case.
`Cc1cc(-c2ccc(N=Nc3ccc4c(S(=O)(=O)O)cc(S(=O)(=O)O)c(N)c4c3O)c(C)c2)ccc1N=Nc1ccc2c(S(=O)(=O)O)cc(S(=O)(=O)O)c(N)c2c1O`: the TGI in assay [1], in assay [2], in assay [10], in assay [3], in assay [4] and in [5] was greater than 100 µM in each case. Besides, the TGI in [7] and in [8] was greater than 100 µM each time.
As to `C/C(CCN(C)C)=N/O`, the TGI worked out at 14.6 µM in [1]; 6.71 µM in assay [2]; 4.82 µM in [10]; 6.97 µM in assay [3]; 1.89 µM in assay [5]; 25.1 µM in assay [7]. For the same compound, the TGI in assay [8] was 33.2 µM.
With `CC(C)C(NCc1c2ccccc2[n+](C)c2ccccc12)C(=O)O` (stereo unspecified), the TGI in assay [1] turned out to be 18 µM; in assay [2], 18.8 µM; in [10] it was 7.86 µM; in [3], 18.5 µM; in assay [4] it was 20.7 µM; in assay [5] it was 14.3 µM. Besides, the TGI in [7] worked out at 13.9 µM; in [8], 19.5 µM.
Turning to `COc1ccccc1N=Nc1c(O)ccc2ccccc12`, the TGI is greater than 100 µM in assay [9]; > 62.4 µM and 40.4 µM in assay [1]; greater than 100 µM in [2]; greater than 100 µM in [10]; greater than 100 µM in assay [3]; 62.9 µM and 95.2 µM in assay [4]. The TGI in [6], in [7] and in [8] was greater than 100 µM in each case. In addition, the GI50 in assay [4] is 10.2 µM and 35.4 µM; in assay [8], 41.5 µM and > 100 µM.
Consider `C/C(=N/NC(=S)Nc1ccc(C)cc1)c1ccccn1`, for which the TGI in assay [1] was found to be 14.8 µM; in [2] it was 18.6 µM; in [10] it was 2.53 µM; in assay [3] it was 6.09 µM; in [4] it was 17.2 µM; in assay [5], 7.41 µM. For the same compound, the TGI in assay [6] amounted to 13.7 µM; in assay [7], 17.6 µM; in assay [8], 0.802 µM.
Take `CCCCCCCCCCCCCCCCNc1nc(=O)n(C2OC(C)C(O)C2O)cc1F` (stereo unspecified): the TGI in assay [9] was 43.8 µM; in assay [1], 54.4 µM; in assay [2], 46.8 µM; in assay [10], 62.2 µM; in assay [4], 50.8 µM; in [5], 33.5 µM. Further, the TGI was 28.1 µM in assay [6], 29.1 µM in assay [7] and 35.5 µM in assay [8].
With `CN1C(c2ccccc2)CC(O)CC1c1ccccc1` (stereo unspecified), the TGI in [1], in assay [2], in [10], in assay [3], in assay [4] and in assay [5] was greater than 100 µM throughout. Further, the TGI in assay [7] and in [8] was greater than 100 µM throughout.
For the compound `O=S(Nc1ccccc1)c1ccc(Cl)cc1` (stereo unspecified), the TGI in assay [9], in [1], in assay [2], in assay [10], in [3] and in assay [4] was greater than 100 µM throughout. Also, the TGI is 46.7 µM in assay [5], greater than 100 µM in assay [7] and greater than 100 µM in [8].
Turning to `Nc1c(C(=O)O)c2ccc([N+](=O)[O-])cc2c(=O)n1-c1nc2ccccc2s1`, the TGI in assay [9], in assay [1], in [2], in assay [10], in [3] and in [4] was greater than 100 µM each time. The TGI in [6] and in [7] was greater than 100 µM in each case.
For `CCOC(=O)CNC(=O)c1[nH]cnc1/N=N/N(C)C`, the TGI in assay [1], in assay [2], in [10], in [3], in assay [4] and in assay [5] was greater than 100 µM each time. For the same compound, the TGI in [7] and in assay [8] was greater than 100 µM each time.
